{
  "source": "patent US20220112625A1",
  "about": "“Diagnosing and Treating Neurological and Autoimmune Diseases by Optimizing Metabolic Responses” (priority 2017, published 2022)",
  "origin": "cited, not measured here",
  "key": {"PI3Kβ": {"target": "PI3Kβ (Homo sapiens, UniProt P42338)", "sequence (P42338 whole entry, species assumed)": "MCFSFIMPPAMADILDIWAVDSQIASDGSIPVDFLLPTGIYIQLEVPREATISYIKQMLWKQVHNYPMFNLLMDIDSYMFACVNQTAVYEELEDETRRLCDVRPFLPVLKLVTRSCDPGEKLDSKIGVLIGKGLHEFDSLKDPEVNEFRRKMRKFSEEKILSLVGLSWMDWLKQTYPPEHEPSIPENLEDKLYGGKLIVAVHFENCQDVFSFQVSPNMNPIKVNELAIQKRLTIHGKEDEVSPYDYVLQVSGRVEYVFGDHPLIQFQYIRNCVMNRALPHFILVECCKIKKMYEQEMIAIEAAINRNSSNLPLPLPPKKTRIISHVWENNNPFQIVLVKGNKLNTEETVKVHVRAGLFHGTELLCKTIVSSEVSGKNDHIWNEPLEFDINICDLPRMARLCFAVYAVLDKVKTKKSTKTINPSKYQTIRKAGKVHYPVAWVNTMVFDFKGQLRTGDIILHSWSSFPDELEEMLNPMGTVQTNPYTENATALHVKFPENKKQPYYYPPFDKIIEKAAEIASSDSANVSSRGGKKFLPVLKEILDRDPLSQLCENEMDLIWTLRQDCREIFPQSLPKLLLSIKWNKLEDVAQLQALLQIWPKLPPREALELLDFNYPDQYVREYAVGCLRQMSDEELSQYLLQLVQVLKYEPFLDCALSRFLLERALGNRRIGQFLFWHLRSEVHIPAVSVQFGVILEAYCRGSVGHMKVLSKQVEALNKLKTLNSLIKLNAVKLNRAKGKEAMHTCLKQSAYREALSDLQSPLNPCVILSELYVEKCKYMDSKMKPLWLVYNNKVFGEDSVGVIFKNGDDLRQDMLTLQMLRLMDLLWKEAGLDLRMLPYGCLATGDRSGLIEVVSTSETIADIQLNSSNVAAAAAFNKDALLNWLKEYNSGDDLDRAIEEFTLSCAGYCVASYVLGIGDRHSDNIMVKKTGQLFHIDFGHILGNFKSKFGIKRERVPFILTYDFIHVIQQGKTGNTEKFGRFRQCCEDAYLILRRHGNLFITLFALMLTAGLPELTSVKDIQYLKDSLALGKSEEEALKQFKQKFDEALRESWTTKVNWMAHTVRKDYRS", "sequence (P27986 whole entry partner, species assumed)": "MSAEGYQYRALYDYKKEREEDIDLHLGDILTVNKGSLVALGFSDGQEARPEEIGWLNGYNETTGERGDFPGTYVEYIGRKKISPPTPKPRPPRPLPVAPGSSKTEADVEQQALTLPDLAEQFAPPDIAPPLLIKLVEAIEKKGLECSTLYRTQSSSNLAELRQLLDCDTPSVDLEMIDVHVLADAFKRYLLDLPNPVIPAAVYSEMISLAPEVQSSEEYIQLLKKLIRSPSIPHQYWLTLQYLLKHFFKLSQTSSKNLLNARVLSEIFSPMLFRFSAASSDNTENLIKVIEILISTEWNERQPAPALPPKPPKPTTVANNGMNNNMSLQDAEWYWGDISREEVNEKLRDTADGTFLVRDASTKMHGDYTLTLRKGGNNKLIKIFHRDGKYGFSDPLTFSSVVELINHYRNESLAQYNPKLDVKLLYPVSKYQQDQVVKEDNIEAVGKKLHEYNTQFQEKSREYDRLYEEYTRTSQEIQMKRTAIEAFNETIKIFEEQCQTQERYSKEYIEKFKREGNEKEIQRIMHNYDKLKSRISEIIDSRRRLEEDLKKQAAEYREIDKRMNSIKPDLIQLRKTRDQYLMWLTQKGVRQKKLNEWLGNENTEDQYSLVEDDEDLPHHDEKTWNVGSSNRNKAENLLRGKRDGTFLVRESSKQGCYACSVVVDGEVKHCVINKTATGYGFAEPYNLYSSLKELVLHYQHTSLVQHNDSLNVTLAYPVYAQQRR", "settings": "PI3Kγ versus PI3Kβ"}, "PI3Kα": {"target": "PI3Kα (Homo sapiens, UniProt P42336)", "sequence (P42336 whole entry, species assumed)": "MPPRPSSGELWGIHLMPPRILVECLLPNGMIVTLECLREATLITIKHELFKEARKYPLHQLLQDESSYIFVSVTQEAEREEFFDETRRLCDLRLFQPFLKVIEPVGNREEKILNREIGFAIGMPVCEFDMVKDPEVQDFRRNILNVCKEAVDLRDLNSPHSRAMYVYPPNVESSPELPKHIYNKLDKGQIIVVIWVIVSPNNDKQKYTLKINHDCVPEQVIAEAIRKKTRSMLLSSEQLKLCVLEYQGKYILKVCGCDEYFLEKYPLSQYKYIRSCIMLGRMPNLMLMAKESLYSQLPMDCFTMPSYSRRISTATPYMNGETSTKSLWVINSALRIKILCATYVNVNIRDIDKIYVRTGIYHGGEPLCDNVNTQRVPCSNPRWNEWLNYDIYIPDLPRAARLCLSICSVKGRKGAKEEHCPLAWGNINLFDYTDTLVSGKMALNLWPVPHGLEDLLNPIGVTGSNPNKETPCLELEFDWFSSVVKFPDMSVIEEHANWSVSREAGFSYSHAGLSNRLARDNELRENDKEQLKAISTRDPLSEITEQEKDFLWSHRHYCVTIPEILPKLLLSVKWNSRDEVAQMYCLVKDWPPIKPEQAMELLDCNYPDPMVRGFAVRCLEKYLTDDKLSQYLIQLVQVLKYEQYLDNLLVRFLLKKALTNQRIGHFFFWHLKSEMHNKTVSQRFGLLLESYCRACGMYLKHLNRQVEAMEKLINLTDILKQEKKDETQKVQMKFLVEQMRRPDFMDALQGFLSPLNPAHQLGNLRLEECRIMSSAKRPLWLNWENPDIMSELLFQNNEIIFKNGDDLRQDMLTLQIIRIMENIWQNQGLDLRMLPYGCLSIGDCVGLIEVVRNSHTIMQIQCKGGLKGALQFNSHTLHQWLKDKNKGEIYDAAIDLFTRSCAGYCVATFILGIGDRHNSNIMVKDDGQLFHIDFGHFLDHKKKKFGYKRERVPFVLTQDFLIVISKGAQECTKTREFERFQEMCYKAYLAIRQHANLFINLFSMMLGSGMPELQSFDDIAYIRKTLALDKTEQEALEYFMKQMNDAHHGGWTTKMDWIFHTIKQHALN", "sequence (P27986 whole entry partner, species assumed)": "as the sequence (P27986 whole entry partner, species assumed) above", "settings": "PI3Kγ versus PI3Kα"}, "PI3Kδ": {"target": "PI3Kδ (Homo sapiens, UniProt O00329)", "sequence (O00329 whole entry, species assumed)": "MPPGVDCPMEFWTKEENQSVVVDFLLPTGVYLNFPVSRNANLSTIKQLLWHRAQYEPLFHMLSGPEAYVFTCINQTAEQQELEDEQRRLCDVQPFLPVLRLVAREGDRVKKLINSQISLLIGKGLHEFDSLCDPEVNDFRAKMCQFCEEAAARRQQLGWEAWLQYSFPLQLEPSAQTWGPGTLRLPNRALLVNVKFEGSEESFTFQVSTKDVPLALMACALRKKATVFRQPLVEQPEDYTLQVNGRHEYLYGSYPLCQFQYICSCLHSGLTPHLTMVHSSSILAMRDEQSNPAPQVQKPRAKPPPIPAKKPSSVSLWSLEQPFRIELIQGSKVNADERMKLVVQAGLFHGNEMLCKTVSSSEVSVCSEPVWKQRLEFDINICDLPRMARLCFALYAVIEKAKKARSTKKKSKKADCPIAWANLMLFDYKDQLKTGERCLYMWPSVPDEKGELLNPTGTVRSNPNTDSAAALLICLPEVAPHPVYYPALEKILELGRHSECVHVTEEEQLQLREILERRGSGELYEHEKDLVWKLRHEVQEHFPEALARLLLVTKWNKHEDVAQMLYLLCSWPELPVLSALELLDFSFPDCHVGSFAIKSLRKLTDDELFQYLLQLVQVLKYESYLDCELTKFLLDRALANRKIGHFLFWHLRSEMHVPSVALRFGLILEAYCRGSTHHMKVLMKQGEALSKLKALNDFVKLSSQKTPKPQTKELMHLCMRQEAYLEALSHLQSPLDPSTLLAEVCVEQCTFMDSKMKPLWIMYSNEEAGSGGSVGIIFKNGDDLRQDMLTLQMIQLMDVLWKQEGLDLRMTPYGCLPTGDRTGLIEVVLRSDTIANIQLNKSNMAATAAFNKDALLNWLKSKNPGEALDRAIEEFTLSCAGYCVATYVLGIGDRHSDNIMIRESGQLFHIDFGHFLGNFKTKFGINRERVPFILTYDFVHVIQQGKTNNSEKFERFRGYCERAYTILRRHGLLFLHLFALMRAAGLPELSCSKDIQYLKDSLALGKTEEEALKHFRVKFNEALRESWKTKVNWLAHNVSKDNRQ", "sequence (P27986 whole entry partner, species assumed)": "as the sequence (P27986 whole entry partner, species assumed) above", "settings": "PI3Kγ versus PI3Kδ"}, "[1]": {"system": "class I and class II PI3Ks"}, "mTOR": {"target": "mTOR (Homo sapiens, UniProt P42345)", "settings": "up to at least about 10 μM"}},
  "data": [
    {"compound": "CC(C)(C)NS(=O)(=O)c1cncc(-c2cc(F)c3nc(N)nn3c2)c1", "note": "[CZC24832, 5-(2-amino-8-fluoro [1,2,4]triazolo[1,5-a]pyridin-6-yl)-N-(1,1-dimethylethyl)-3-pyridinesulfonamide]", "values": [
      {"measurement": "selectivity over PI3Kβ", "setting": "PI3Kβ", "result": 10, "unit": "fold"},
      {"measurement": "selectivity over PI3Kα", "setting": "PI3Kα", "result": "> 100", "unit": "fold"},
      {"measurement": "selectivity over PI3Kδ", "setting": "PI3Kδ", "result": "> 100", "unit": "fold"}
    ]},
    {"compound": "C[C@@H]1COCCN1c1cc(=O)n2c(n1)N(Cc1cncc(Cl)c1)[C@H](C(F)(F)F)CC2", "note": "[SAR405, (8S)-9-[(5-chloro-3-pyridinyl)methyl]-6,7,8,9-tetrahydro-2-[(3R)-3-methyl-4-morpholinyl]-8-(trifluoromethyl)-4H-pyrimido[1,2-a]pyrimidin-4-one]", "values": [
      {"measurement": "effect on class I and class II PI3Ks", "setting": "[1]; up to at least about 10 μM", "result": "no effect"},
      {"measurement": "effect on mTOR", "setting": "mTOR", "result": "no effect"}
    ]},
    {"compound": "CC(C)(O)CNc1ncc(-c2ccnc(Nc3ccnc(Cl)c3)n2)c(CC2CC2)n1", "note": "[VPS34-IN1, 1-[[2-[(2-chloro-4-pyridinyl)amino]-4′-(cyclopropylmethyl)[4,5′-bipyrimidin]-2′-yl]amino]-2-methyl-2-Propanol]", "values": [
      {"measurement": "inhibition of the isoforms of class I as well as class II PI3Ks", "setting": "[1]", "result": "does not significantly inhibit"}
    ]}
  ]
}
